Assay results reported in patent US20050009894A1 (Aventis Pharma S.A., priority 2001, published 2005).

Molecular target: T1, human KDR enzyme (Homo sapiens, UniProt P35968)
T1 construct: The cytoplasmic domain of human KDR enzyme is cloned in the form of a GST fusion; GST; made in house; host or cells: SF21 insect cells (baculovirus, pFastBac)
Experiment: Phosphorylation of the substrate PLCγ by the enzyme KDR in vitro (flashplate technique)
Format: biochemical
Settings: Table VII, degrees of activity by IC50 range; read-out: Activity
Experimental: The inhibitory effect of the compounds is determined in a test of phosphorylation of a substrate by the enzyme KDR in vitro by the flasplate technique (96-well plate, NEN). The cytoplasmic domain of human KDR enzyme is cloned in the form of a GST fusion into the baculovirus expression vector pFastBac. The protein is expressed in the SF21 cells and purified to about 60% homogeneity.
The kinase activity of KDR is measured in 20 mM MOPS, 10 mM MgCl2, 10 mM MnCl2, 1 mM DTT, 2.5 mM EGTA, 10 mM β-glycerophosphate, pH 7.2 in the presence of 10 mM MgCl2, 100 μM Na3VO4, 1 mM NaF. 10 μl of the compound are added to 70 μl of kinase buffer containing 100 ng of KDR enzyme at 4° C. The reaction is initiated by adding 20 μl of solution containing 2 μg of substrate (fragment SH2-SH3 of PLCγ expressed in the form of a GST fusion protein), 2 μCi γ33P[ATP] and 2 μM cold ATP. After incubating for 1 h at 37° C., the reaction is quenched by adding 1 volume (100 μl) of 200 mM EDTA. The incubation buffer is removed and the wells are washed three times with 300 μl of PBS. The radioactivity is measured in each well using a Top Count NXT instrument (Packard).
Background noise is determined by measuring the radio-activity in wells in quadruplet containing radioactive ATP and the substrate alone.
An activity control is measured in wells in quadruplet containing all the reagents (γ33P-[ATP], KDR and the substrate PLCγ) and in the absence of compound.
The inhibition of the KDR activity with the compound of the invention is expressed as a percentage of inhibition of the control activity determined in the absence of compound.
The compound SU5614 (Calbiochem) (1 μM) is included in each plate as inhibition control.
The IC50 values for the compounds are calculated by plotting the dose-response curves. The IC50 corresponds to the concentration of compound that induces a 50% inhibition of the kinase activity.

T1 sequence (P35968 786-1356 limits assumed): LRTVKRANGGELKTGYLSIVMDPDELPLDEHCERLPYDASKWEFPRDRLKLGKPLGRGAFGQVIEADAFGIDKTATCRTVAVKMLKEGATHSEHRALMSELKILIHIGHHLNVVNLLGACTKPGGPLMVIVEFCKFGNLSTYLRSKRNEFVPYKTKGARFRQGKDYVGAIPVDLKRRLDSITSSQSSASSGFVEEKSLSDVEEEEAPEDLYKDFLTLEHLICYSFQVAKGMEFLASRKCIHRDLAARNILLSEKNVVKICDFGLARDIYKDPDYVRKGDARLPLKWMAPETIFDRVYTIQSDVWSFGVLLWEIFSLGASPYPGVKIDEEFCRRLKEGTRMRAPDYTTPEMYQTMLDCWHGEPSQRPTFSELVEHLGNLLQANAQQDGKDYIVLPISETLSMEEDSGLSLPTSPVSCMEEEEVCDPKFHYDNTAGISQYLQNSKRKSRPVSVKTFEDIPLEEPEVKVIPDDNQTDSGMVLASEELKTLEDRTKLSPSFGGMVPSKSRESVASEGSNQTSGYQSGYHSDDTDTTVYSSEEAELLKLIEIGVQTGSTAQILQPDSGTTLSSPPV

SMILES	IC50 [µM]
NS(=O)(=O)c1ccc(CNC(=O)c2ccc3[nH]c(-c4n[nH]c5ccccc45)nc3c2)cc1 [Example 28, 2-(1H-Indazol-3-yl)-1H-benzoimidazole-5-carboxylic acid 4-(aminosulpnonyl)benzylamide]	< 0.3
CCOCCCNC(=O)c1ccc2[nH]c(-c3n[nH]c4ccccc34)nc2c1 [Example 29, 2-(1H-Indazol-3-yl)-1H-benzoimidazole-5-carboxylic acid (3-ethoxy-propyl)-amide]	0.3 to 3

Second part, the compound after the results:

IC50 [µM]	SMILES
< 0.3	O=C(NCc1ccc(Br)cc1)c1ccc2[nH]c(-c3n[nH]c4ccccc34)nc2c1 [Example 30, 2-(1H-Indazol-3-yl)-1H-benzoimidazole-5-carboxylic acid 4-bromo-benzylamide]
< 0.3	CS(=O)(=O)c1ccc(CNC(=O)c2ccc3[nH]c(-c4n[nH]c5ccccc45)nc3c2)cc1 [Example 31, 2-(1H-Indazol-3-yl)-1H-benzoimidazole-5-carboxylic acid 4-methanesulfonyl-benzylamide]
0.3 to 3	O=C(NCc1cccc2ccccc12)c1ccc2[nH]c(-c3n[nH]c4ccccc34)nc2c1 [Example 32, 2-(1H-Indazol-3-yl)-1H-benzoimidazole-5-carboxylic acid (naphthalen-1-ylmethyl)-amide]
0.3 to 3	O=C(NCc1ccc(C(F)(F)F)cc1)c1ccc2[nH]c(-c3n[nH]c4ccccc34)nc2c1 [Example 33, 2-(1H-Indazol-3-yl)-1H-benzoimidazole-5-carboxylic acid 4-trifluoromethyl-benzylamide]
0.3 to 3	O=C(NCc1cccs1)c1ccc2[nH]c(-c3n[nH]c4ccccc34)nc2c1 [Example 34, 2-(1H-Indazol-3-yl)-1H-benzoimidazole-5-carboxylic acid (thiophen-2-ylmethyl)-amide]
0.3 to 3	CN(C)c1ccc(CNC(=O)c2ccc3[nH]c(-c4n[nH]c5ccccc45)nc3c2)cc1 [Example 35, 2-(1H-Indazol-3-yl)-1H-benzoimidazole-5-carboxylic acid 4-dimethylamino-benzylamide]
0.3 to 3	CC(C)(C)OC(=O)N1CCC(CNC(=O)c2ccc3[nH]c(-c4n[nH]c5ccccc45)nc3c2)CC1 [Example 36, 4-({[2-(1H-Indazol-3-yl)-1H-benzoimidazole-5-carbonyl]-amino}-methyl)-piperidine-1-carboxylic acid tert-butyl ester]
< 0.3	O=C(NCc1ccc([N+](=O)[O-])cc1)c1ccc2[nH]c(-c3n[nH]c4ccccc34)nc2c1 [Example 37, 2-(1H-Indazol-3-yl)-1H-benzoimidazole-5-carboxylic acid 4-nitro-benzylamide]
0.3 to 3	O=C(NCc1cccnc1)c1ccc2[nH]c(-c3n[nH]c4ccccc34)nc2c1 [Example 38, 2-(1H-Indazol-3-yl)-1H-benzoimidazole-5-carboxylic acid (pyridin-3-ylmethyl)-amide]
0.3 to 3	O=C(NCc1cccc(Br)c1)c1ccc2[nH]c(-c3n[nH]c4ccccc34)nc2c1 [Example 39, 2-(1H-Indazol-3-yl)-1H-benzoimidazole-5-carboxylic acid 3-bromo-benzylamide]

Same assay, conditions: product tested at 10 μM; read-out: % of inhibition of the phosphorylation of PLCγ by KDR (product tested at a concentration of 10 μM)

inhibition at 10 µM [%]	SMILES
91.8	CCNC(=O)c1ccc2[nH]c(-c3n[nH]c4ccccc34)nc2c1 [Example 3, 2-(1H-Indazol-3-yl)-1H-benzimidazole-5-carboxylic acid N-ethylamide]
91.9	O=C(Nc1ccccc1)c1ccc2[nH]c(-c3n[nH]c4ccccc34)nc2c1 [Example 5, 2-(1H-Indazol-3-yl)-1H-benzimidazole-5-carboxylic acid N-phenylamide]
91.2	Brc1ccc2nc(-c3n[nH]c4ccccc34)[nH]c2c1 [Example 18, 5-Bromo-2-(1H-indazol-3-yl)-3H-benzimidazole]
35	Cc1cc2nc(-c3cc(-c4cccs4)n[nH]3)[nH]c2cc1C [Example 21, 5,6-Dimethyl-2-(5-thiophen-2-yl-2H-pyrazol-3-yl)-1H-benzimidazole]

Same assay, conditions: read-out: IC50 (μM) on inhibition of the phosphory-lation of PLCγ by KDR

IC50 [µM]	SMILES
0.47	O=C(NCc1ccccc1)c1ccc2nc(-c3n[nH]c4ccccc34)[nH]c2c1 [Example 1, 2-(1H-Indazol-3-yl)-1H-benzimidazole-5-carboxylic acid benzylamide]
0.45	CNC(=O)c1ccc2[nH]c(-c3n[nH]c4ccccc34)nc2c1 [Example 2, 2-(1H-Indazol-3-yl)-1H-benzimidazole-5-carboxylic acid N-methylamide]
0.45	CC(C)NC(=O)c1ccc2[nH]c(-c3n[nH]c4ccccc34)nc2c1 [Example 4, 2-(1H-Indazol-3-yl)-1H-benzimidazole-5-carboxylic acid N-isopropylamide]
0.33	O=C(NCCc1ccccc1)c1ccc2[nH]c(-c3n[nH]c4ccccc34)nc2c1 [Example 6, 2-(1H-Indazol-3-yl)-1H-benzimidazole-5-carboxylic acid N-phenethylamide]
0.72	O=C(c1ccc2[nH]c(-c3n[nH]c4ccccc34)nc2c1)N1CCOCC1 [Example 7, 2-(1H-Indazol-3-yl)-1H-benzimidazole-5-carboxylic acid N-morpholinoamide]
0.67	CN1CCN(C(=O)c2ccc3[nH]c(-c4n[nH]c5ccccc45)nc3c2)CC1 [Example 8, 2-(1H-Indazol-3-yl)-1H-benzimidazole-5-carboxylic acid N-(N′-methyl-piperazino)amide]
0.35	O=C(c1ccc2[nH]c(-c3n[nH]c4ccccc34)nc2c1)N1CCCC1 [Example 9, 2-(1H-Indazol-3-yl)-1H-benzimidazole-5-carboxylic acid N-pyrrolidinoamide]
0.34	CC(C)CNC(=O)c1ccc2[nH]c(-c3n[nH]c4ccccc34)nc2c1 [Example 10, 2-(1H-Indazol-3-yl)-1H-benzimidazole-5-carboxylic acid N-(isobutyl)amide]
0.26	O=C(NCC1CCCCC1)c1ccc2[nH]c(-c3n[nH]c4ccccc34)nc2c1 [Example 11, 2-(1H-Indazol-3-yl)-1H-benzimidazole-5-carboxylic acid N-(cyclohexylmethyl)amide]
0.16	O=C(NCc1ccco1)c1ccc2[nH]c(-c3n[nH]c4ccccc34)nc2c1 [Example 12, 2-(1H-Indazol-3-yl)-1H-benzimidazole-5-carboxylic acid N-(2-furfuryl)amide]
0.61	CN(Cc1ccccc1)C(=O)c1ccc2[nH]c(-c3n[nH]c4ccccc34)nc2c1 [Example 13, 2-(1H-Indazol-3-yl)-1H-benzimidazole-5-carboxylic acid N-benzyl-N-methylamide]
1.2	COC(=O)c1ccc2nc(-c3n[nH]c4ccccc34)[nH]c2c1 [Example 14, Methyl 2-(1H-indazol-3-yl)-3H-benzimidazole-5-carboxylate]
0.8	Cc1cc2nc(-c3n[nH]c4ccccc34)[nH]c2cc1C [Example 15, 5,6-Dimethyl-2-(1H-indazol-3-yl)-1H-benzimidazole]
2	COc1ccc2nc(-c3n[nH]c4ccccc34)[nH]c2c1 [Example 16, 5-Methoxy-2-(1H-indazol-3-yl)-1H-benzimidazole]
3.4	Cc1cc(-c2nc3cc(C)c(C)cc3[nH]2)[nH]n1 [Example 20, 5,6-Dimethyl-2-(5-methyl-2H-pyrazol-3-yl)-1H-benzimidazole]
2	CCc1cc(-c2nc3cc(C)c(C)cc3[nH]2)[nH]n1 [Example 23, 2-(5-Ethyl-2H-pyrazol-3-yl)-5,6-dimethyl-1H-benzimidazole]
